In PMC12249663, “Identification and Screening of Novel Antioxidant Peptides from Yak Skin and Their Protective Effect on H2O2-Induced HepG2 Cells Oxidation” (International Journal of Molecular Sciences, 2025):
Where two headings read alike, the source gives them in different places.

How the values were obtained:
H2O2-induced HepG2 cells [1] = assay: MDA content in H2O2-induced HepG2 cells (kit); assay type: cell-based; conditions: peptide pretreatment 24 h, then 1.4 mM H2O2 2 h; cell lysate; mean ± SD; model group 10.31 ± 0.23
Procedure: (§1) After the medium was discarded, 100 μL peptides of different concentrations were added to the wells and cultured for an additional 24 h. After discarding the medium and then being washed, the cells were incubated with 100 μL of an appropriate concentration of H2O2. After incubation for 2 h, the supernatant was collected, and the content of IL-8 was determined strictly, according to the kit instructions. Afterwards, the cells were washed twice with PBS, and then the cell viability was measured. Alternatively, the cells were disrupted with 300 μL of cell lysate and centrifuged at 6000× g at 4 °C for 15 min. The supernatant was collected and stored at −80 °C. The protein concentration was determined using the Bio-Rad DC analysis with BSA as the standard curve. In addition, the contents of SOD, CAT, and MDA in cell lysates were determined in strict accordance with the kit instructions.

[2] = DPPH radical scavenging activity; assay type: biochemical; conditions: 100 μL sample + 100 μL 0.1 mmol/L DPPH in anhydrous ethanol, 30 min dark, room temperature, absorbance 517 nm; sample concentration not given; mean ± SD, at least three repeats
Procedure: Slightly modified according to the previous method, the 100 μL sample solution was mixed with 100 μL 0.1 mmol/L DPPH anhydrous ethanol solution and reacted in the dark at room temperature for 30 min. Then the absorbance was measured at 517 nm. The DPPH free radical scavenging rate of the sample was calculated by the formula below.(1) DPPH radical scavenging rate(%)=(1−A1−A2/A0)×100, where A1 represented the absorbance value the sample reaction with DPPH anhydrous ethanol solution; A2 represented the absorbance value of the sample’s reaction with anhydrous ethanol solution; A0 represented the absorbance of the reaction mixture solution without the sample.

H2O2-induced HepG2 cells [3] = assay: SOD activity in H2O2-induced HepG2 cells (kit); assay type: cell-based; conditions: for activity of SOD compared with the model group: peptide pretreatment, H2O2-induced HepG2 cells, p < 0.05
Procedure: as §1

H2O2-induced HepG2 cells [4] = assay: IL-8 content in H2O2-induced HepG2 cells (ELISA kit); assay type: cell-based; conditions: peptide pretreatment 24 h, then 1.4 mM H2O2 2 h; supernatant; p < 0.05; model group 154.02 ± 2.80 pg/mL
Procedure: as §1

H2O2-induced HepG2 cells [5] = assay: CAT activity in H2O2-induced HepG2 cells (kit); assay type: cell-based; conditions: for activity of CAT compared with the model group: peptide pretreatment, H2O2-induced HepG2 cells, p < 0.05
Procedure: as §1

HepG2 cells = conditions: 2 h, CCK-8, mean ± SD
Procedure: HepG2 cells were cultured in 96-well plates at a density of 5 × 10^4 cells/mL for 24 h. After the medium was removed, 100 µL of complete medium containing different concentrations of H2O2 (800, 1000, 1200, 1400, 1600 µM) was added and incubated for 2 h. After the medium was discarded, cell viability was determined using the CCK-8 assay to establish the optimal H2O2 concentration for inducing an oxidative stress model. The cells without H2O2 treatment were used as control group.

[6] = Hydroxyl radical scavenging activity; assay type: biochemical; conditions: salicylic acid / FeSO4 / H2O2 6.0 mmol/L, 37 °C, 0.5 h, absorbance 510 nm; sample concentration not given; mean ± SD, at least three repeats
Procedure: The hydroxyl radical scavenging activities of samples were performed as in the previous method with slight modifications. Briefly, 6.0 mmol/L salicylic acid solution and FeSO4 solution were prepared, and 0.5 mL of each solution was added into a reaction tube, followed by the addition of a 0.5 mL sample solution and a 0.5 mL H2O2 solution of 6.0 mmol/L. After mixing, the reaction was conducted in a 37 °C water bath for 0.5 h, and then the absorbance was measured at 510 nm. Meanwhile, the sample was replaced with distilled water and used as the blank group, and H2O2 was replaced with distilled water and used as the control group. The hydroxyl radical scavenging rate of the sample was calculated according to the formula below.(3) hydroxyl radical scavenging rate(%)=(1-A0−A1/A)×100, where A0, A1, and A represented the absorbance values of the sample group, blank group, and control group, respectively.

[7] = ABTS radical scavenging activity; assay type: biochemical; conditions: 40 μL sample + 160 μL ABTS working solution, 10 min dark, room temperature, absorbance 734 nm; sample concentration not given; mean ± SD, at least three repeats
Procedure: Slightly modified according to the previous method, 7.4 mmol/L ABTS solution was mixed with the 2.6 mmol/L K2S2O8 solution in equal volume, and then was kept in the dark for 16 h. The ABTS working solution was obtained when the mixture was subsequently diluted with anhydrous ethanol to adjust the absorbance to a range of 0.70 ± 0.02 at 734 nm. Then, the sample solution of 40 μL was mixed with 160 μL ABTS working solution and reacted at room temperature for 10 min in the dark on 96 microporous plates. Meanwhile, the sample was replaced with distilled water as the blank. The absorbance was measured at 734 nm, and the ABTS radical scavenging rate of samples was calculated using the formula below.(2) ABTS radical scavenging rate(%)=[…], where A0 and A1 represented the absorbance values of the blank and sample groups.

Compound | MDA content (H2O2-induced HepG2 cells [1]) [nmol/mg prot] | DPPH radical scavenging rate [2] | activity of SOD compared with the model group (H2O2-induced HepG2 cells [3]) | intracellular IL-8 content compared with the model group (H2O2-induced HepG2 cells [4]) | activity of CAT compared with the model group (H2O2-induced HepG2 cells [5]) | cell viability (HepG2 cells; H2O2 0.8 µM) [%] | cell survival rate (HepG2 cells; H2O2 1.4 mM) [%] | cell viability (HepG2 cells; H2O2 1.6 mM) [%] | hydroxyl radical scavenging rate [6] | ABTS radical scavenging rate [7] | activity of SOD in cells (H2O2-induced HepG2 cells [3]; peptide pretreatment 24 h, then 1.4 mM H2O2 2 h, cell lysate, mean ± SD, model group 6.17 ± 0.41, control 14.35 ± 0.06) [U/mg prot] | activity of CAT in cells (H2O2-induced HepG2 cells [5]; peptide pretreatment 24 h, then 1.4 mM H2O2 2 h, cell lysate, mean ± SD, model group 26.01 ± 1.78, control 60.80 ± 1.10) [U/mg prot]
LMGPR [Leu-Met-Gly-Pro-Arg, antioxidant peptide identified from yak skin hydrolysate YSP-I, synthesized] | 5.91 ± 0.27 | 23.56% ± 2.68% | significantly more improved | significantly reduced | significantly more improved |  |  |  |  |  |  | 
OO [H2O2, hydrogen peroxide] |  |  |  |  |  | 91.77 ± 4.53 | 51.29 ± 3.06 | 37.01 ± 3.20 |  |  |  | 
GHNGLDGL [Gly-His-Asn-Gly-Leu-Asp-Gly-Leu, antioxidant peptide identified from yak skin hydrolysate YSP-I, synthesized] | 4.65 ± 0.39 |  | significantly more improved | significantly reduced | significantly more improved |  |  |  |  |  |  | 
GFDGD [Gly-Phe-Asp-Gly-Asp, antioxidant peptide identified from yak skin hydrolysate YSP-I, synthesized] | 5.55 ± 0.16 |  | significantly more improved | significantly reduced | significantly more improved |  |  |  | 41.61% ± 1.73% |  |  | 
GPAGPQGPR [Gly-Pro-Ala-Gly Pro-Gln-Gly-Pro-Arg, antioxidant peptide identified from yak skin hydrolysate YSP-I, synthesized] | 5.96 ± 0.30 |  | significantly more improved | significantly reduced | significantly more improved |  |  |  |  |  |  | 
FGFDGDF [Phe-Gly-Phe-Asp-Gly-Asp-Phe, antioxidant peptide identified from yak skin hydrolysate YSP-I, synthesized] | 3.945 ± 0.21 | 25.80% ± 1.82% | significantly more improved | significantly reduced | significantly more improved |  |  |  | 44.44% ± 1.94% | 19.15% ± 1.59% | 11.83 ± 0.16 | 47.49 ± 1.14
